Literature values as cited in the PKSmart pharmacokinetics tables (Seal et al. 2025).
*1 amine or outer side, *2 acyl side, *3 side chain or, on linkers, in order; H or OH if unused. Where a SMILES comes first, the peptide text is derived from it. Bridges are numbered along the chain shown (N, C = ends). [ ]: non-standard residue; d: D form. The star is where a group is joined. ξ: configuration not given here. pTerphenylCO(4''-OnC5H11) = CCCCCOc1ccc(-c2ccc(-c3ccc(C(=O)*)cc3)cc2)cc1; ξOrn(4R-OH,5R-OH) = O=C(C(C[C@@H](O)[C@@H](O)N[*:3])N[*:1])[*:2]; ξhTyr(3S-OH,4S-OH) = NC(C(=O)O)[C@H](O)[C@@H](O)c1ccc(O)cc1; X4 = C[C@H]1CN([*:1])C(C(=O)[*:2])[C@H]1O; ξPro(4R-OH) = O=C(O)C1C[C@@H](O)CN1; ξThr(3R) = C[C@@H](O)C(N)C(=O)O

Experiment: Lombardo, Berellini, Obach 2018, Drug Metab Dispos 46:1466, doi 10.1124/dmd.118.082966
Conditions: human; for MRT / Vd / clearance / half-life: in vivo, iv; for fraction unbound: plasma

CN(C)[C@@H]1C(O)=C(C(N)=O)C(=O)[C@@]2(O)C(O)=C3C(=O)c4c(O)cccc4[C@@](C)(O)[C@H]3[C@H](O)[C@@H]12
MRT: 12 h
Vd: 1.7 L/kg
clearance: 2 mL/min/kg
half-life: 10 h
fraction unbound: 0.9

O=c1ccc2ccccc2o1
MRT: 0.78 h
Vd: 1.1 L/kg
clearance: 23.6 mL/min/kg
half-life: 0.8 h
fraction unbound: 0.17

CCN(CC)CCS(=O)(=O)[C@@H]1CCN2C(=O)c3coc(n3)CC(=O)C[C@H](O)/C=C(C)/C=C\CNC(=O)/C=C/[C@@H](C)[C@H](C(C)C)OC(=O)C12 (stereo not given in full)
MRT: 0.41 h
Vd: 0.39 L/kg
clearance: 16 mL/min/kg
half-life: 0.74 h
fraction unbound: 0.82

CCCC[S@](=N)(=O)CCC(N)C(=O)O (stereo not given in full)
MRT: 1.9 h
Vd: 0.26 L/kg
clearance: 2.28 mL/min/kg
half-life: 1.68 h

CCCCCOc1ccc(-c2ccc(-c3ccc(C(=O)NC4C[C@@H](O)[C@@H](O)NC(=O)C5[C@@H](O)[C@@H](C)CN5C(=O)C([C@@H](C)O)NC(=O)C([C@H](O)[C@@H](O)c5ccc(O)cc5)NC(=O)C5C[C@@H](O)CN5C(=O)C([C@@H](C)O)NC4=O)cc3)cc2)cc1 (stereo partly drawn) ({pTerphenylCO(4''-OnC5H11)}-[ξOrn(4R-OH,5R-OH)][ξThr(3R)][ξPro(4R-OH)][ξhTyr(3S-OH,4S-OH)][ξThr(3R)][X4]; lactam 1-C)
MRT: 45 h
Vd: 0.57 L/kg
clearance: 0.21 mL/min/kg
half-life: 40 h

COc1ccc(CCN(C)CCCN2Cc3cc(OC)c(OC)cc3C2=O)cc1OC
MRT: 2.62 h
Vd: 2.4 L/kg
clearance: 15.7 mL/min/kg
half-life: 2.04 h
fraction unbound: 0.12

Oc1ccc([C@H]2CNCCc3c2cc(O)c(O)c3Cl)cc1
MRT: 0.2 h
Vd: 0.5 L/kg
clearance: 41.5 mL/min/kg
half-life: 1 h
fraction unbound: 0.12

CN1CCN2c3ccccc3Cc3ccccc3[C@H]2C1
MRT: 10.5 h
Vd: 13.8 L/kg
clearance: 21.9 mL/min/kg
half-life: 9.6 h
fraction unbound: 0.05

Cc1ccnc2c1NC(=O)c1cccnc1N2C1CC1
MRT: 81 h
Vd: 1.3 L/kg
clearance: 0.3 mL/min/kg
half-life: 53 h

COC(=O)Nc1nc2cc(C(=O)c3ccccc3)ccc2[nH]1
MRT: 1.3 h
Vd: 1.2 L/kg
clearance: 15 mL/min/kg
half-life: 1.1 h

CON=C(C(=O)NC1C(=O)N2C(C(=O)O)=C(CSc3cnns3)CS[C@H]12)c1csc(N)n1 (stereo not given in full)
MRT: 0.82 h
Vd: 0.2 L/kg
clearance: 4.1 mL/min/kg
half-life: 1.14 h
fraction unbound: 0.12

C=C(CC)C(=O)c1ccc(OCC(=O)O)c(Cl)c1Cl
MRT: 0.5 h
Vd: 0.26 L/kg
clearance: 8.7 mL/min/kg
half-life: 0.5 h

CC(C)C[C@H](NC(=O)CNC(=O)c1cc(Cl)ccc1Cl)B(O)O
MRT: 119 h
Vd: 3.61 L/kg
clearance: 0.5 mL/min/kg
half-life: 97 h
fraction unbound: 0.01

N=C(N)NC(=O)Cc1c(Cl)cccc1Cl
MRT: 22 h
Vd: 5.6 L/kg
clearance: 4.5 mL/min/kg
half-life: 15 h

CNC(=O)c1cnn(-c2nc(N)c3ncn([C@@H]4O[C@H](CO)[C@@H](O)[C@H]4O)c3n2)c1
MRT: 2.1 h
Vd: 0.94 L/kg
clearance: 7.3 mL/min/kg
half-life: 2 h
fraction unbound: 0.7

CN1[C@@H]2CCC[C@H]1C[C@@H](NC(=O)c1nn(C)c3ccccc13)C2
MRT: 6.7 h
Vd: 3.7 L/kg
clearance: 9.1 mL/min/kg
half-life: 5.2 h

C=CCN(C1=NCCN1)c1c(Cl)cccc1Cl
MRT: 3.77 h
Vd: 2.72 L/kg
clearance: 12 mL/min/kg
half-life: 3.14 h
fraction unbound: 0.4

CCCC[P@@](=O)(O)CCCN
clearance: 1.56 mL/min/kg
half-life: 2.1 h

CC1(C)[C@@H](O[C@H]2OC(C(=O)O)[C@@H](O)[C@H](O)[C@H]2O[C@@H]2OC(C(=O)O)[C@@H](O)[C@H](O)[C@H]2O)CC[C@]2(C)C3C(=O)C=C4C5C[C@@](C)(C(=O)O)CC[C@]5(C)CC[C@]4(C)[C@@]3(C)CC[C@@H]12 (stereo not given in full)
MRT: 7.83 h
Vd: 0.06 L/kg
clearance: 0.13 mL/min/kg
half-life: 8.83 h

C#C[C@]1(O)C=C[C@H]2[C@@H]3CC=C4CC(=O)CCC4[C@H]3CC[C@@]21CC (stereo not given in full)
MRT: 9.6 h
Vd: 0.46 L/kg
clearance: 0.8 mL/min/kg
half-life: 10 h
fraction unbound: 0.023

CC1(C)S[C@@H]2C(NC(=O)C(c3ccccc3)S(=O)(=O)O)C(=O)N2C1C(=O)O (stereo not given in full)
MRT: 1.6 h
Vd: 0.15 L/kg
clearance: 1.6 mL/min/kg
half-life: 1.2 h
fraction unbound: 0.5

COc1ccccc1Oc1c(NS(=O)(=O)c2ccc(C)cn2)nc(-c2ccncc2)nc1OC
MRT: 8.8 h
Vd: 0.27 L/kg
clearance: 0.52 mL/min/kg
half-life: 7.2 h

CCC[C@H](Nc1nc(-c2ccc(NC(=O)NCC)c(OC)c2)ncc1C)c1cccnc1
MRT: 2.5 h
Vd: 3.41 L/kg
clearance: 22.2 mL/min/kg
half-life: 2.9 h

CCOC(=O)[C@]1(c2ccccc2)CCC=C[C@H]1NC
MRT: 4.2 h
Vd: 2.5 L/kg
clearance: 9.9 mL/min/kg
half-life: 4.4 h

O=C(NCCN1CCOCC1)c1ccc(Cl)cc1
MRT: 1.8 h
Vd: 1.1 L/kg
clearance: 10 mL/min/kg
half-life: 1.5 h

CCCCCCC(C)(C)c1cc(O)c2c(c1)OC(C)(C)[C@H]1CC=C(CO)C[C@H]21
MRT: 3.94 h
Vd: 5.06 L/kg
clearance: 21.4 mL/min/kg
half-life: 7.33 h

CCCCC1=NC2(CCCC2)C(=O)N1Cc1ccc(-c2ccccc2-c2nnn[nH]2)cc1
MRT: 6.8 h
Vd: 0.94 L/kg
clearance: 2.3 mL/min/kg
half-life: 14 h
fraction unbound: 0.1

CC(=O)NC(CO)C(=O)NC(CC(=O)O)C(=O)NC(CCCCN)C(=O)N1CCCC1C(=O)O (stereo not given) (Ac-SDKP-OH; configuration not given here)
clearance: 18.7 mL/min/kg
half-life: 0.08 h

CN1C[C@H](CNC(=O)OCc2ccccc2)C[C@@H]2c3cccc4c3c(cn4C)C[C@H]21
MRT: 1 h
Vd: 0.57 L/kg
clearance: 9.6 mL/min/kg
half-life: 0.93 h

CCNC(=O)CCC/C=C\C[C@@H]1[C@@H](/C=C\[C@@H](O)CCc2ccccc2)[C@H](O)C[C@@H]1O
Vd: 0.67 L/kg
clearance: 25 mL/min/kg
half-life: 0.45 h
fraction unbound: 0.12

NC(=O)c1cc[n+](CC2=C(C(=O)O)N3C(=O)C(NC(=O)C(c4ccccc4)S(=O)(=O)[O-])[C@H]3SC2)cc1 (stereo not given in full)
MRT: 2.47 h
Vd: 0.29 L/kg
clearance: 1.96 mL/min/kg
half-life: 1.64 h

CC(C)CC1C(=O)N2CCC[C@H]2[C@]2(O)O[C@@](C)(NC(=O)C3C[C@@H]4c5cccc6[nH]cc(c56)C[C@H]4N(C)C3)C(=O)N12 (stereo not given in full)
MRT: 5.01 h
Vd: 4.02 L/kg
clearance: 12.8 mL/min/kg
half-life: 8.84 h

Nc1nc(OCc2cc(Br)cs2)c2[nH]cnc2n1
clearance: 21.6 mL/min/kg
half-life: 2.92 h

CC1(C)S[C@@H]2C(NC(=O)C(NC(=O)N3CCNC3=O)c3ccccc3)C(=O)N2C1C(=O)O (stereo not given in full)
MRT: 1.7 h
Vd: 0.26 L/kg
clearance: 2.5 mL/min/kg
half-life: 1.2 h
fraction unbound: 0.65

CC1(C)S[C@@H]2C(NC(=O)COc3ccccc3)C(=O)N2C1C(=O)O (stereo not given in full)
MRT: 1 h
Vd: 0.41 L/kg
clearance: 6.8 mL/min/kg
half-life: 0.84 h

Cc1cccc(C)c1NC(=O)C1CCCCN1C (stereo not given)
MRT: 2.5 h
Vd: 0.95 L/kg
clearance: 6.8 mL/min/kg
half-life: 2 h
fraction unbound: 0.3

CC(C)(N)CC(=O)NC1CCc2ccccc2N(Cc2ccc(-c3ccccc3-c3nnn[nH]3)cc2)C1=O (stereo not given)
MRT: 1.1 h
Vd: 0.2 L/kg
clearance: 3.05 mL/min/kg
half-life: 3.8 h
fraction unbound: 0.06

O=C(Cn1ccnc1[N+](=O)[O-])NCC(O)C(F)(F)F (stereo not given)
MRT: 3.86 h
Vd: 0.69 L/kg
clearance: 3 mL/min/kg
half-life: 3.45 h

COc1cc(F)ccc1Cn1ccc2c3c(ncc21)C(=O)N(O)CC3
MRT: 3.95 h
Vd: 5.7 L/kg
clearance: 24 mL/min/kg
half-life: 3.8 h
fraction unbound: 0.08

C[C@@H](O)C1C(=O)N2C(C(=O)O)=C(CN)S[C@H]12 (stereo not given in full)
MRT: 0.5 h
Vd: 0.23 L/kg
clearance: 7.67 mL/min/kg
half-life: 0.5 h

COP(=O)(c1cc(C)cc(/C=C/C#N)c1)c1c(C(N)=O)[nH]c2ccc(Cl)c(F)c12 (stereo not given)
MRT: 8.9 h
Vd: 0.97 L/kg
clearance: 1.83 mL/min/kg
half-life: 7.4 h

O[C@](CO[C@@H]1CN2CCC1CC2)(c1ccccc1)C1CCCC1
MRT: 17.8 h
Vd: 2.12 L/kg
clearance: 1.99 mL/min/kg
half-life: 15.7 h

COCC(=O)Nc1c(I)c(C(=O)NCC(O)CO)c(I)c(C(=O)N(C)CC(O)CO)c1I (stereo not given)
MRT: 2.6 h
Vd: 0.22 L/kg
clearance: 1.4 mL/min/kg
half-life: 2.6 h
fraction unbound: 0.99

CC(C)=CCC[C@]1(C)C=Cc2c(O)c3c(c(CC=C(C)C)c2O1)O[C@]12C(=CC4C[C@@H]1C(C)(C)O[C@@]2(C/C=C(/C)C(=O)O)C4=O)C3=O
MRT: 13.3 h
Vd: 0.99 L/kg
clearance: 1.24 mL/min/kg
half-life: 14.6 h

O=C(O)CCCC[C@@H]1CCSS1
MRT: 0.14 h
Vd: 0.1 L/kg
clearance: 11.5 mL/min/kg
half-life: 0.21 h

CN(C)CCN1C(=O)c2cccc3cc(N)cc(c23)C1=O
MRT: 6.34 h
Vd: 7.33 L/kg
clearance: 19.3 mL/min/kg
half-life: 4.78 h

CC(C)(C)NC[C@@H](O)COc1cccc2c1CCC(=O)N2
clearance: 10.1 mL/min/kg
half-life: 4.7 h

CN1Cc2c(N)cccc2C(c2ccccc2)C1 (stereo not given)
MRT: 4.5 h
Vd: 6 L/kg
clearance: 22 mL/min/kg
half-life: 6.5 h

COc1c(OCCCN2CCOCC2)ccc2c1N=C(NC(=O)c1cnc(N)nc1)N1CCN=C21
MRT: 26.8 h
Vd: 10.3 L/kg
clearance: 6.42 mL/min/kg
half-life: 25.2 h

C[C@]12CCC(=O)C=C1CC[C@@H]1[C@@H]2[C@@H](O)C[C@@]2(C)[C@H]1CC[C@]2(O)C(=O)CO
MRT: 1.9 h
Vd: 0.38 L/kg
clearance: 5.7 mL/min/kg
half-life: 1.6 h
